# Results reported in patent publication US20030158089A1, “Administrative agents via the SMVT transporter” (priority 2002, published 2003).
# Where two headings read alike, the source gives them in different places.
# Columns and labels:
# hSMVT = target: T1, hSMVT (Homo sapiens, UniProt Q9Y289); assay: Radiolabeled competition assay in SMVT-expressing CHO cells; assay type: cell-based
# T1 sequence (Q9Y289 1-635): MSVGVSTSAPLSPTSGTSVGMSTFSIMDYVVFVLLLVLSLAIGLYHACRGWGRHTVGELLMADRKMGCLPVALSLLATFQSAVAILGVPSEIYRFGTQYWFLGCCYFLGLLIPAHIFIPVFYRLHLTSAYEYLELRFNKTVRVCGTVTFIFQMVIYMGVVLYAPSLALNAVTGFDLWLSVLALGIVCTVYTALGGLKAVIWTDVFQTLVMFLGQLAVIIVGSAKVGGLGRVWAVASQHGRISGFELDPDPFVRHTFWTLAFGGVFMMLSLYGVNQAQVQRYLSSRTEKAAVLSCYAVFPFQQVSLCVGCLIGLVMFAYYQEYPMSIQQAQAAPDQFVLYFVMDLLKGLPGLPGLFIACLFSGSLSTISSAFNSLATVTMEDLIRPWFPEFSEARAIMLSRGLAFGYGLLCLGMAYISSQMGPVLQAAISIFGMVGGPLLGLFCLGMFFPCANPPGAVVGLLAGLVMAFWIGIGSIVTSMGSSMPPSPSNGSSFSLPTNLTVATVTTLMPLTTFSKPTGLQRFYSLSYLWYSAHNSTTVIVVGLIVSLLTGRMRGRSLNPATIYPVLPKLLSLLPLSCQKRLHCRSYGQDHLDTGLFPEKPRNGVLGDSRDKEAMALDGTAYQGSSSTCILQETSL
# From the text: The complete open reading frame of human SMVT (SLC5A6) was amplified from human cDNA prepared from intestinal mRNA. Gene-specific oligonucleotide primers were designed against Genbank sequences (NM-021095). Amplified PCR products were cloned into a modified version of the mammalian expression vector pcDNA3 (termed pMO) that was engineered to contain the 5′ and 3′ untranslated regions from the Xenopus beta-globin gene. All clones were completely sequenced and tested for function by transient transfection in HEK293 cells.
# Stable clones of CHOK1 cells were obtained by electroporation, selection in G418, and single cell sorting using FACS ([…] cell sorting, Cytomation). Stable clones expressing SMVT were identified by enhanced uptake of radiolabeled substrates. For cell uptake studies, stable CHOK1 clones were seeded into polylysine coated 96-well microtiter plates and grown for 2-3 days. Cells were incubated with experimental solutions (combinations of radiolabeled and unlabeled compounds) for 30 minutes at room temperature, washed four times, and lysed in scintillation solution. Accumulation of radiolabeled molecules was measured in a microtiter scintillation plate reader (Perkin Elmer). Inhibition constants (IC50s) were calculated using curve-fitting software (Prism).
# human SMVT (SLC5A6) = target: T2, human SMVT (SLC5A6) (Homo sapiens, UniProt Q9Y289); assay: Two-electrode voltage-clamp transport currents in SMVT-expressing Xenopus oocytes; assay type: cell-based; conditions: for Vmax as a % of Biotin Vmax: % max response relative to biotin, transporter-expressing oocytes, test compound 0.5 mM
# T2 construct: The complete open reading frame of human SMVT (SLC5A6) was amplified; expressed in transfected cells; host or cells: Xenopus oocytes injected with 10-30 ng cRNA transcribed from the pMO plasmid
# T2 sequence (Q9Y289 1-635): T1 sequence (Q9Y289 1-635)
# From the text: “Vmax” and “KM” of a compound for a transporter (e.g., the SMVT transporter) are defined in accordance with convention. Vmax is the number of molecules of compound transported per unit time at saturating concentration of the compound. KM is the concentration of the compound at which the compound is transported at half of Vmax. In general, a high value Of Vmax is desirable for a substrate of a transporter. A low value of KM is desirable for transport of low concentrations of a compound, and a high value of KM is desirable for transport of high concentrations of a compound. Vmax is affected both by the intrinsic turnover rate of a transporter (molecules/transporter protein) and transporter density in plasma membrane that depends on expression level. For these reasons, the intrinsic capacity of a compound to be transported by a particular transporter is usually expressed as the ratio (or percent) of the Vmax of the compound/Vmax of a control compound known to be a substrate for the transporter.
# cRNA for oocyte expression was prepared by linearization of plasmid cDNA and in vitro transcription using T7 polymerase (Epicentre Ampliscribe kit). Xenopus oocytes were prepared and maintained as previously described (Collins et al., PNAS […]:5456-5460 (1997)) and injected with 10-30 ng RNA. Transport currents were measured 2-6 days later using two-electrode voltage-clamp (Axon Instruments). All experiments were performed using a modified oocyte ringers solution (90 mM NaCl, 2 mM KCl, 1.8 mM CaCl2, 1 mM MgCl2, and 10 mM NaHEPES, pH 7.4; in Na^+-free solutions […] choline chloride was substituted for NaCl). The membrane potential of oocytes was held at −60 mV and current traces acquired using PowerLab software (ADInstruments). Full 7-concentration dose-responses were performed for each compound. […] Half-maximal concentrations were calculated using non-linear regression curve fitting software (Prism) with the Hill co-efficient fixed to 1. To ensure that currents were specific for the over-expressed transporter, all compounds were tested against uninjected oocytes.
# [1] = rat, 2 μM
# Description: (§1) The stability of conjugates were evaluated in one or more in vitro systems using a variety of tissue preparations following methods known in the art. […] Each preparation was incubated with test compound at 37° C. for one hour. Aliquots (50 μL) were removed at 0, 30, and 60 min and quenched with 0.1% trifluoroacetic acid in acetonitrile. Samples were then centrifuged and analyzed by LC/MS/MS.
# [2] = rat, 2 μM, pH 7.4
# Description: as §1
# [3] = Caco-2 homogenate S9 stability; assay type: in vitro ADME; conditions: Caco-2 S9 (0.5 mg protein per mL), 37° C, 5 μM
# Description: Caco-2 Homogenate S9 Stability: Caco-2 cells were grown for 21 days prior to harvesting. Culture medium was removed and cell monolayers were rinsed and scraped off into ice-cold 10 mM sodium phosphate/0.15 M potassium chloride, pH 7.4. Cells were lysed by sonication at 4° C. using a probe sonicator. Lysed cells were then transferred into 1.5 mL centrifuge vials and centrifuged at 9000 g for 20 min at 4° C. The resulting supernatant (Caco-2 cell homogenate S9 fraction) was aliquoted into 0.5 mL vials and stored at −80° C. until used.
# For stability studies, conjugate (5 μM) was incubated in Caco-2 homogenate S9 fraction (0.5 mg protein per mL) for 60 min at 37° C. Concentrations of intact conjugate and released drug were determined at zero time and 60 minutes using LC/MS/MS.
# Pancreatin = Pancreatin stability; assay type: in vitro ADME, porcine; conditions: 1 % (w/v) pancreatin, pH 7.5, 37° C, 5 μM
# Description: Pancreatin Stability: Stability studies were conducted by incubating conjugate (5 μM) with 1 % (w/v) pancreatin (Sigma, P-1625, from porcine pancreas) in 0.025 M Tris buffer containing 0.5 M NaCl (pH 7.5) at 37° C. for 60 min. The reaction was stopped by addition of 2 volumes of methanol. After centrifugation at 14,000 rpm for 10 min, the supernatant was removed. and analyzed by LC/MS/MS.
# [4] = In vitro cleavage of conjugate in rat plasma; conditions: 37° C, 2.0 μM
# Description: as §1
# [5] = In vitro cleavage of conjugate in human plasma; conditions: 37° C, 2.0 μM
# Description: as §1
# [6] = In vitro cleavage of conjugate in rat liver S9; conditions: Rat Liver S9 (0.5 mg/mL), NADPH, 37° C, 2.0 μM
# Description: as §1
# [7] = In vitro cleavage of conjugate in human liver S9; conditions: Human Liver S9 (0.5 mg/mL), NADPH, 37° C, 2.0 μM
# Description: as §1
# in vivo = conditions: male, Sprague-Dawley, rat, po
# Description: Test compounds were administered as an intravenous bolus injection or by oral gavage to groups of four to six adult male Sprague-Dawley rats (weight approx 250 g) as solutions in water or water/ethanol (90:10). The doses ranged between 10 and 200 mg per kg body weight (i.e. 0.04-0.8 mmole/kg). Animals were fasted overnight before the study and for 4 hours post-dosing. Blood samples (1.0 mL) were obtained via a jugular vein cannula at intervals over 24 hours after oral dosing. Blood was processed immediately for plasma and plasma was frozen at −80° C. until analyzed.
# Concentrations of test compound in plasma were determined using an API 2000 LC/MS/MS instrument equipped with an Agilent 1100 binary pump and an Agilent autosampler. The column was a Zorbax XDB C8 4.6*150 mm column at room temperature. The mobile phases were 0.1% formic acid (A) and acetonitrile with 0.1% formic acid (B). The gradient condition was: 5% B for 1 min, increasing to 98% B in 3 min and maintained for 2.5 min. […] The peaks were integrated using Analyst 1.1 quantitation software.
# Oral bioavailability (F) was determined by comparison of the area under the concentration versus time curve (AUC) following oral administration of the conjugate or intravenous administration of the parent agent at equimolar doses.
# human or rat SMVT = conditions: voltage-clamped Xenopus oocytes; cited from earlier work
# [8] = radiolabeled competition assay in SMVT-expressing CHO cells, read-out: IC50
compound,measurement,setting,value
"CC(C)(C)C(=O)OCOC(=O)NCC1(CC(=O)O)CCCCC1 [(1), 1-{[(α-Pivaloyloxymethoxy)carbonyl]aminomethyl}-1-Cyclohexane Acetic Acid]",IC50,hSMVT; [8],450 µM
same,Vmax as a % of Biotin Vmax,human SMVT (SLC5A6),21%
"CC(OC(=O)NCC1(CC(=O)O)CCCCC1)OC(=O)C(C)C (stereo not drawn) [(6), 1-{[(α-Isobutanoyloxyethoxy)carbonyl]aminomethyl}-1-Cyclohexane Acetic Acid]",IC50,hSMVT; [8],100 µM
same,Vmax as a % of Biotin Vmax,human SMVT (SLC5A6),46%
same,% of Drug Released from Conjugate after 60 min,[1],23%
same,% of Drug Released from Conjugate after 60 min,[2],52%
"CCC(=O)OC(OC(=O)NCC1(CC(=O)O)CCCCC1)C(C)C (stereo not drawn) [(9), 1-{[(α-Propanoyloxyisobutoxy)carbonyl]aminomethyl}-1-Cyclohexane Acetic Acid]",Vmax as a % of Biotin Vmax,human SMVT (SLC5A6),19%
same,% of Drug Released from Conjugate after 60 min,[3],65%
same,% of Drug Released from Conjugate after 60 min,Pancreatin,25%
same,% of Drug Released from Conjugate after 60 min,[4],69%
same,% of Drug Released from Conjugate after 60 min,[5],7%
same,% of Drug Released from Conjugate after 60 min,[6],62%
same,% of Drug Released from Conjugate after 60 min,[7],83%
"NCC1(CC(=O)O)CCCCC1 [Gabapentin, reference compound]",IC50,hSMVT,> 500 µM
same,Vmax as a % of Biotin Vmax,human SMVT (SLC5A6),0%
O=C(O)CCCC[C@@H]1SC[C@@H]2NC(=O)N[C@@H]21 [biotin],plasma concentration at the highest dose,in vivo,~4000 ng/mL
same,bioavailability,in vivo; 25 mg/kg,100%
same,bioavailability,in vivo; 200 mg/kg,27%
same,Km,human or rat SMVT,5 to 20 µM
"CC(C)(CO)[C@@H](O)C(=O)NCCC(=O)[O-].[Na+] [pantothenate, sodium pantothenate]",plasma concentration at the highest dose,in vivo,~4000 ng/mL
same,bioavailability,in vivo; 25 mg/kg,35%
same,bioavailability,in vivo; 200 mg/kg,10%
"N-acetyl-D-Lys(ε-biotin)-D-Arg-D-Arg-D-Arg-D-Gln-D-Arg-D-Arg-D-Lys-D-Lys-D-Arg-NH2 [biotinylated decapeptide, reference compound]",specific sodium-dependent current (SMVT substrate activity),"human SMVT (SLC5A6); 20 μM peptide, presence and absence of 100 mM Na+","no specific, sodium-dependent current"
